Laboratory results from ChEMBL document CHEMBL1201862, “PubChem BioAssay data set” (2004).
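Tested at 5 concentrations; 48 h exposure; 96-well plates; endpoints linearly interpolated, else capped at highest concentration. GI50 = concentration required for 50% inhibition of growth.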 Activity calls are given as the source filed them. Rule as the data show it: active = GI50 up to about 1.1 µM and inactive = higher.

Legend:
Assay in all cases: inhibition of tumour cell growth, NCI panel, 48 h
LOX IMVI = system: LOX IMVI
HCT-15 = system: HCT-15
RPMI-8226 = system: RPMI-8226
HOP-92 = system: HOP-92
Malme-3M = system: Malme-3M
SR = system: SR
MDA-N = system: MDA-N
SF-268 = system: SF-268
Hs-578T = system: Hs-578T
ACHN = system: ACHN
HT-29 = system: HT-29
NCI-H23 = system: NCI-H23
T47D = system: T47D
BT-549 = system: BT-549
CCRF-CEM = system: CCRF-CEM
HCC 2998 = system: HCC 2998
OVCAR-5 = system: OVCAR-5
SW-620 = system: SW-620
HL-60 = system: HL-60
NCI-H522 = system: NCI-H522
CAKI-1 = system: CAKI-1
MDA-MB-435 = system: MDA-MB-435
A549 = system: A549
PC-3 = system: PC-3
IGROV-1 = system: IGROV-1
OVCAR-8 = system: OVCAR-8
NCI-H460 = system: NCI-H460
786-0 = system: 786-0
HOP-62 = system: HOP-62
A498 = system: A498
HCT-116 = system: HCT-116
KM12 = system: KM12
TK-10 = system: TK-10
U-251 = system: U-251
UO-31 = system: UO-31
NCI/ADR-RES = system: NCI/ADR-RES
OVCAR-3 = system: OVCAR-3
DU-145 = system: DU-145
COLO 205 = system: COLO 205
M14 = system: M14
SK-MEL-2 = system: SK-MEL-2
SNB-19 = system: SNB-19
UACC-62 = system: UACC-62
SNB-75 = system: SNB-75
OVCAR-4 = system: OVCAR-4
SK-MEL-5 = system: SK-MEL-5
UACC-257 = system: UACC-257
MDA-MB-231 = system: MDA-MB-231
SN12C = system: SN12C
NCI-H226 = system: NCI-H226
SK-MEL-28 = system: SK-MEL-28
K562 = system: K562
SF-295 = system: SF-295
RXF 393 = system: RXF 393
MOLT-4 = system: MOLT-4
SK-OV-3 = system: SK-OV-3

Q: How did the GI50 (LOX IMVI) turn out when `COc1cccc(-c2c(C#N)c(N)nc3c2CCS(=O)(=O)c2ccc(C)cc2-3)c1` was run?
A: Its GI50 is > 100 µM (inactive).

Q: What about the GI50 (HCT-15) of the same compound?
A: The GI50 was greater than 100 µM.

Q: And the GI50 (RPMI-8226)?
A: Its GI50 is > 100 µM (inactive).

Q: What about the GI50 (HOP-92) of the same compound?
A: The GI50 was > 100 µM (inactive).

Q: And the GI50 (Malme-3M)?
A: Its GI50 is 68.1 µM (inactive).

Q: And the GI50 (SR)?
A: The GI50 was 40.6 µM (inactive).

Q: And the GI50 (MDA-N)?
A: The GI50 was > 100 µM (inactive).

Q: And the GI50 (SF-268)?
A: Its GI50 is > 100 µM (inactive).

Q: What about the GI50 (Hs-578T) of the same compound?
A: The GI50 was > 100 µM (inactive).

Q: What about the GI50 (ACHN) of the same compound?
A: The GI50 was > 100 µM (inactive).

Q: What about the GI50 (HT-29) of the same compound?
A: The GI50 was > 100 µM (inactive).

Q: And the GI50 (NCI-H23)?
A: The GI50 was > 100 µM (inactive).

Q: What about the GI50 (T47D) of the same compound?
A: Its GI50 is > 100 µM (inactive).

Q: And the GI50 (BT-549)?
A: Its GI50 is > 100 µM (inactive).

Q: And the GI50 (CCRF-CEM)?
A: The GI50 was > 100 µM (inactive).

Q: And the GI50 (HCC 2998)?
A: The GI50 was 78.2 µM (inactive).

Q: And the GI50 (OVCAR-5)?
A: The GI50 was > 100 µM (inactive).

Q: What about the GI50 (SW-620) of the same compound?
A: Its GI50 is > 100 µM (inactive).

Q: What about the GI50 (HL-60) of the same compound?
A: The GI50 was > 100 µM (inactive).

Q: And the GI50 (NCI-H522)?
A: Its GI50 is > 100 µM (inactive).

Q: What about the GI50 (CAKI-1) of the same compound?
A: The GI50 was > 100 µM (inactive).

Q: What about the GI50 (MDA-MB-435) of the same compound?
A: The GI50 was > 100 µM (inactive).

Q: What about the GI50 (A549) of the same compound?
A: Its GI50 is > 100 µM (inactive).

Q: What about the GI50 (PC-3) of the same compound?
A: The GI50 was 89.1 µM (inactive).

Q: And the GI50 (IGROV-1)?
A: Its GI50 is > 100 µM (inactive).

Q: And the GI50 (OVCAR-8)?
A: The GI50 was 43.8 µM (inactive).

Q: What about the GI50 (NCI-H460) of the same compound?
A: Its GI50 is > 100 µM (inactive).

Q: And the GI50 (786-0)?
A: The GI50 was 61.7 µM (inactive).

Q: And the GI50 (HOP-62)?
A: Its GI50 is > 100 µM (inactive).

Q: What about the GI50 (A498) of the same compound?
A: Its GI50 is > 100 µM (inactive).

Q: What about the GI50 (HCT-116) of the same compound?
A: Its GI50 is > 100 µM (inactive).

Q: And the GI50 (KM12)?
A: The GI50 was > 100 µM (inactive).

Q: What about the GI50 (TK-10) of the same compound?
A: Its GI50 is > 100 µM (inactive).

Q: What about the GI50 (U-251) of the same compound?
A: Its GI50 is > 100 µM (inactive).

Q: What about the GI50 (UO-31) of the same compound?
A: The GI50 was > 100 µM (inactive).

Q: What about the GI50 (NCI/ADR-RES) of the same compound?
A: The GI50 was > 100 µM (inactive).

Q: What about the GI50 (OVCAR-3) of the same compound?
A: Its GI50 is > 100 µM (inactive).

Q: And the GI50 (DU-145)?
A: Its GI50 is > 100 µM (inactive).

Q: And the GI50 (COLO 205)?
A: The GI50 was > 100 µM (inactive).

Q: And the GI50 (M14)?
A: The GI50 was > 100 µM (inactive).

Q: And the GI50 (SK-MEL-2)?
A: The GI50 was > 100 µM (inactive).

Q: What about the GI50 (SNB-19) of the same compound?
A: Its GI50 is 56.2 µM (inactive).

Q: And the GI50 (UACC-62)?
A: Its GI50 is > 100 µM (inactive).

Q: What about the GI50 (SNB-75) of the same compound?
A: The GI50 was 33 µM (inactive).

Q: What about the GI50 (OVCAR-4) of the same compound?
A: The GI50 was 95.5 µM (inactive).

Q: And the GI50 (SK-MEL-5)?
A: Its GI50 is > 100 µM (inactive).

Q: What about the GI50 (UACC-257) of the same compound?
A: The GI50 was 65.2 µM (inactive).

Q: What about the GI50 (MDA-MB-231) of the same compound?
A: Its GI50 is > 100 µM (inactive).

Q: What about the GI50 (SN12C) of the same compound?
A: The GI50 was > 100 µM (inactive).

Q: And the GI50 (NCI-H226)?
A: Its GI50 is > 100 µM (inactive).

Q: What about the GI50 (SK-MEL-28) of the same compound?
A: The GI50 was > 100 µM (inactive).

Q: And the GI50 (K562)?
A: The GI50 was > 100 µM (inactive).

Q: How did the GI50 (LOX IMVI) turn out when `Cc1c(-c2ccccc2)nn2cc(-c3ccccc3)nnc12` was run?
A: The GI50 was 19 µM (inactive).

Q: And the GI50 (HCT-15)?
A: Its GI50 is 14.7 µM.

Q: And the GI50 (RPMI-8226)?
A: Its GI50 is 35.5 µM (inactive).

Q: And the GI50 (HOP-92)?
A: Its GI50 is 15.5 µM (inactive).

Q: And the GI50 (SF-295)?
A: Its GI50 is 34.8 µM (inactive).

Q: What about the GI50 (Malme-3M) of the same compound?
A: Its GI50 is 13.3 µM (inactive).

Q: And the GI50 (SR)?
A: Its GI50 is 33.5 µM (inactive).

Q: What about the GI50 (RXF 393) of the same compound?
A: Its GI50 is 18.2 µM (inactive).

Q: What about the GI50 (MDA-N) of the same compound?
A: Its GI50 is 19.7 µM (inactive).

Q: What about the GI50 (SF-268) of the same compound?
A: The GI50 was 28.6 µM (inactive).

Q: And the GI50 (Hs-578T)?
A: Its GI50 is 25.2 µM (inactive).

Q: What about the GI50 (ACHN) of the same compound?
A: The GI50 was 46.3 µM (inactive).

Q: And the GI50 (HT-29)?
A: The GI50 was 24.2 µM (inactive).

Q: And the GI50 (NCI-H23)?
A: The GI50 was 31.9 µM (inactive).

Q: What about the GI50 (T47D) of the same compound?
A: The GI50 was 61.2 µM (inactive).

Q: And the GI50 (BT-549)?
A: The GI50 was 25.2 µM (inactive).

Q: What about the GI50 (CCRF-CEM) of the same compound?
A: Its GI50 is 27.4 µM (inactive).

Q: What about the GI50 (HCC 2998) of the same compound?
A: The GI50 was 15.5 µM (inactive).

Q: And the GI50 (OVCAR-5)?
A: Its GI50 is 30.7 µM (inactive).

Q: And the GI50 (SW-620)?
A: Its GI50 is 23 µM (inactive).

Q: What about the GI50 (NCI-H522) of the same compound?
A: The GI50 was 15.5 µM (inactive).

Q: What about the GI50 (CAKI-1) of the same compound?
A: Its GI50 is 45.7 µM (inactive).

Q: What about the GI50 (MDA-MB-435) of the same compound?
A: Its GI50 is 29.5 µM (inactive).

Q: What about the GI50 (MOLT-4) of the same compound?
A: The GI50 was 35.5 µM (inactive).

Q: And the GI50 (SK-OV-3)?
A: The GI50 was 39.3 µM (inactive).

Q: What about the GI50 (A549) of the same compound?
A: The GI50 was 17.5 µM (inactive).

Q: What about the GI50 (PC-3) of the same compound?
A: Its GI50 is 19.6 µM (inactive).

Q: What about the GI50 (IGROV-1) of the same compound?
A: The GI50 was 21.7 µM (inactive).

Q: What about the GI50 (OVCAR-8) of the same compound?
A: The GI50 was 67.3 µM (inactive).

Q: And the GI50 (NCI-H460)?
A: The GI50 was 16.9 µM (inactive).

Q: And the GI50 (786-0)?
A: Its GI50 is 17.2 µM (inactive).

Q: And the GI50 (HOP-62)?
A: The GI50 was 28.7 µM (inactive).

Q: What about the GI50 (A498) of the same compound?
A: Its GI50 is 56.6 µM (inactive).

Q: And the GI50 (HCT-116)?
A: Its GI50 is 20.7 µM (inactive).

Q: What about the GI50 (KM12) of the same compound?
A: The GI50 was 29 µM (inactive).

Q: And the GI50 (TK-10)?
A: The GI50 was 42.4 µM (inactive).

Q: And the GI50 (U-251)?
A: Its GI50 is 19.2 µM (inactive).

Q: And the GI50 (UO-31)?
A: The GI50 was 29.1 µM (inactive).

Q: What about the GI50 (NCI/ADR-RES) of the same compound?
A: The GI50 was 39.1 µM (inactive).

Q: What about the GI50 (OVCAR-3) of the same compound?
A: Its GI50 is 32.7 µM (inactive).

Q: And the GI50 (DU-145)?
A: The GI50 was 30.4 µM (inactive).

Q: And the GI50 (COLO 205)?
A: Its GI50 is 22.2 µM (inactive).

Q: And the GI50 (M14)?
A: The GI50 was 22.6 µM (inactive).

Q: What about the GI50 (SK-MEL-2) of the same compound?
A: The GI50 was 15.1 µM (inactive).

Q: And the GI50 (SNB-19)?
A: Its GI50 is 40.8 µM (inactive).

Q: And the GI50 (UACC-62)?
A: Its GI50 is 17.9 µM (inactive).

Q: And the GI50 (SNB-75)?
A: The GI50 was 20.7 µM (inactive).

Q: What about the GI50 (OVCAR-4) of the same compound?
A: The GI50 was 44.5 µM (inactive).

Q: And the GI50 (SK-MEL-5)?
A: Its GI50 is 16.3 µM (inactive).

Q: What about the GI50 (UACC-257) of the same compound?
A: Its GI50 is 23.4 µM (inactive).

Q: And the GI50 (MDA-MB-231)?
A: The GI50 was 18.3 µM (inactive).

Q: What about the GI50 (SN12C) of the same compound?
A: The GI50 was 37.9 µM (inactive).

Q: And the GI50 (NCI-H226)?
A: Its GI50 is 21.2 µM (inactive).

Q: What about the GI50 (SK-MEL-28) of the same compound?
A: Its GI50 is 27.6 µM (inactive).

Q: And the GI50 (K562)?
A: Its GI50 is 31 µM (inactive).
